Reference: patent US5324725A, “7-fused 2-(piperazinoalkyl) indole derivatives, intermediates and compositions thereof” (Kali-Chemie Pharma GmbH, priority 1991, dated 1994)
Like-named read-outs stand apart in the source and are kept apart here.

What was measured:
cyclooxygenase = target: T1, cyclooxygenase (Mus musculus, UniProt P22437); assay: Cyclooxygenase inhibition: release of 6-keto-PGF1 α from zymosan-stimulated mouse peritoneal macrophage cells; assay type: cell-based; conditions: 10^-5 mol/l, read-out: In vitro % inhibition effect on the release of 6-keto-PGF1 α
T1 construct: A cell suspension containing peritoneal cells of male mice 8-10 weeks old was obtained; endogenous in cells; host or cells: mouse peritoneal macrophages (male mice 8-10 weeks old), zymosan-stimulated
T1 sequence (P22437 27-602): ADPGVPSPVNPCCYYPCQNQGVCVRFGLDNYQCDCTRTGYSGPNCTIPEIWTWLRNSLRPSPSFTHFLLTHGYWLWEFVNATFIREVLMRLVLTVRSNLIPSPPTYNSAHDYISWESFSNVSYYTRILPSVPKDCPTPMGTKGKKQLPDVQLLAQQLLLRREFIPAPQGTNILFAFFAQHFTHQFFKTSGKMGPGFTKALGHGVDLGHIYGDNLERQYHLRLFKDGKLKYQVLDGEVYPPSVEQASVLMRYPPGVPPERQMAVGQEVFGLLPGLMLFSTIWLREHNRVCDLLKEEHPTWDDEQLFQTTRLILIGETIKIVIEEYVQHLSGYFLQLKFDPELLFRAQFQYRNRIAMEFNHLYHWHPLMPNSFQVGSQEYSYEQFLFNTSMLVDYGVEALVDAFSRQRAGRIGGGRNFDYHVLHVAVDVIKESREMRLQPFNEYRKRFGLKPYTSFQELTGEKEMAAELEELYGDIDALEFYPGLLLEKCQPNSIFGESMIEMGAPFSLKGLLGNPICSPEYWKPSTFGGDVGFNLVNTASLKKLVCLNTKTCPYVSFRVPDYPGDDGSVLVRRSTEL
Method in brief: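 Adherent peritoneal macrophages from 8–10-week male mice were preincubated 15 min with compound at 10^-5 M (1% dimethylformamide vehicle) in HBSS/10 mM Hepes, then stimulated with zymosan […] for 2 h. LTC4 and 6-keto-PGF1 α in supernatants were quantified by EIA, giving % inhibition versus zymosan controls.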

histamine (H1) receptor = target: T2, histamine (H1) receptor (Cavia porcellus, UniProt P31389); assay: Antihistamine (H1) effect: inhibition of histamine-induced contractions of isolated guinea-pig ileum in vitro; assay type: cell-based, guinea-pig (Dunkin Hartley); conditions: histamine 5 × 10^-6 mol/l, test substance 10^-6 mol/l
T2 construct: isolated smooth muscle of the guinea-pig ileum; from tissue; host or cells: isolated ileum segments of Dunkin Hartley guinea-pigs
T2 sequence (P31389 whole entry): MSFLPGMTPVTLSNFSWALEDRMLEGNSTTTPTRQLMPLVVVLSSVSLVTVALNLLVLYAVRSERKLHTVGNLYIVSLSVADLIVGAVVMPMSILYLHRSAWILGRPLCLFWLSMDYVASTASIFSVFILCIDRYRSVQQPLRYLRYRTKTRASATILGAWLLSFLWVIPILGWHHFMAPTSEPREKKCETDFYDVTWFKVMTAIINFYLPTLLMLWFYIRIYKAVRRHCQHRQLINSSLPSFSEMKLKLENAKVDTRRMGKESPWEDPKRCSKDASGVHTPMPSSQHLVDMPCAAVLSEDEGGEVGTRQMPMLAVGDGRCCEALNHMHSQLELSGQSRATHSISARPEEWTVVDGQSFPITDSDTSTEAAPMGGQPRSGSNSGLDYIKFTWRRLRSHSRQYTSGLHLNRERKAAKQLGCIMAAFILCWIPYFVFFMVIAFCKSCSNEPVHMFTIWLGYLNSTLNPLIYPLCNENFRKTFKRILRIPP
Method in brief: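 Dunkin Hartley guinea-pig ileum segments (300-500 g animals) in Krebs-Henseleit, pH 7.4, 5% CO2/95% O2, 1 g tension, isotonic recording. Compound at 10^-6 mol/l for 30 s before histamine 5×10^-6 mol/l; contraction measured over 30 s, repeated 10 min after washout, expressed as % inhibition.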

[1] = after 30 sec., read-out: in vitro (H1) receptor antagonism % inhibitory effect on histamine-induced contractions of the Ileum, after 30 sec.
[2] = after 10 min. (after washing), read-out: in vitro (H1) receptor antagonism % inhibitory effect on histamine-induced contractions of the Ileum, after 10 min.

Compound | inhibition at 10 µM (cyclooxygenase) [%] | inhibition at 1 µM (histamine (H1) receptor; [1]) [%] | inhibition at 1 µM (histamine (H1) receptor; [2]) [%]
Cc1ccnc(N2CCN(CCc3c(C)n4c5c(cc(C(=O)C(C)C)cc35)CCC4)CC2)c1 [Example 27, 5,6-dihydro-2-methyl-8-(2-methyl-1-oxopropyl)-1-{2-[4-(4-methylpyridin-2-yl)piperazin-1-yl]ethyl}-4H-pyrrolo-[3,2,1-ij]quinoline] | 10 | 33 | 92
Cc1ccnc(N2CCN(CCc3c(C)n4c5c(cc(C(=O)c6ccccc6)cc35)CCC4)CC2)c1 [Example 66] | 72 | 10 | 71
